# In patent US10772893B2, “2-(morpholin-4-yl)-1,7-naphthyridines” (BAYER PHARMA AKTIENGESELLSCHAFT, priority 2014, dated 2020):
# Tested on: HeLa cells
# Assay: Proliferation assay, crystal violet staining
# Settings: Homo sapiens, 96 h, read-out: Inhibition of HeLa cell proliferation, HeLa cells, 4 days incubation
row,IC50,SMILES
1,2520 nM,"O=C1CN(c2cc(N3CCOCC3)nc3c(-c4ccn[nH]4)nccc23)CCN1 [Example 176, 4-[2-(morpholin-4-yl)-8-(1H-pyrazol-5-yl)-1,7-naphthyridin-4-yl]piperazin-2-one]"
2,146 nM,"C[C@@H]1COCCN1c1cc(C(C)(O)C(C)(C)C)c2ccnc(-c3ccn[nH]3)c2n1 (stereo partly drawn) [Example 283, 3,3-dimethyl-2-{2-[(3R)-3-methylmorpholin-4-yl]-8-(1H-pyrazol-5-yl)-1,7-naphthyridin-4-yl}butan-2-ol]"
3,458 nM,"CC(C)n1cc(-c2cc(N3CCOC[C@H]3C)nc3c(-c4ccn[nH]4)nccc23)cn1 [Example 255, 2-[(3R)-3-methylmorpholin-4-yl]-4-[1-(propan-2-yl)-1H-pyrazol-4-yl]-8-(1H-pyrazol-5-yl)-1,7-naphthyridine]"
4,245 nM,"C[C@@H]1COCCN1c1cc(-c2ccc(N3CCNCC3)cc2F)c2ccnc(-c3ccn[nH]3)c2n1 [Example 81, 4-[2-fluoro-4-(piperazin-1-yl)phenyl]-2-[(3R)-3-methylmorpholin-4-yl]-8-(1H-pyrazol-5-yl)-1,7-naphthyridine]"
5,180 nM,"Cc1ncc(-c2cc(N3CCOC[C@H]3C)nc3c(-c4ccn[nH]4)nccc23)cc1F [Example 233, 4-(5-fluoro-6-methylpyridin-3-yl)-2-[(3R)-3-methylmorpholin-4-yl]-8-(1H-pyrazol-5-yl)-1,7-naphthyridine]"
6,2840 nM,"C[C@@H]1COCCN1c1cc(-c2ccn(C3CCOCC3)n2)c2ccnc(-c3ccn[nH]3)c2n1 [Example 246, 2-[(3R)-3-methylmorpholin-4-yl]-8-(1H-pyrazol-5-yl)-4-[1-(tetrahydro-2H-pyran-4-yl)-1H-pyrazol-3-yl]-1,7-naphthyridine]"
7,805 nM,"C[C@@H]1COCCN1c1cc(N2CCOCC2)nc2c(-c3ccn[nH]3)nccc12 [Example 148, 4-[(3R)-3-methylmorpholin-4-yl]-2-(morpholin-4-yl)-8-(1H-pyrazol-5-yl)-1,7-naphthyridine]"
8,543 nM,"C[C@@H]1COCCN1c1cc(N(C)c2ccc(F)cc2)c2ccnc(-c3ccn[nH]3)c2n1 [Example 87, N-(4-fluorophenyl)-N-methyl-2-[(3R)-3-methylmorpholin-4-yl]-8-(1H-pyrazol-5-yl)-1,7-naphthyridin-4-amine]"
9,92 nM,"Cc1ccnc(F)c1-c1cc(N2CCOC[C@H]2C)nc2c(-c3ccn[nH]3)nccc12 [Example 90, 4-(2-fluoro-4-methylpyridin-3-yl)-2-[(3R)-3-methylmorpholin-4-yl]-8-(1H-pyrazol-5-yl)-1,7-naphthyridine]"
10,341 nM,"Cc1cscc1-c1cc(N2CCOC[C@H]2C)nc2c(-c3ccn[nH]3)nccc12 [Example 101, 2-[(3R)-3-methylmorpholin-4-yl]-4-(4-methyl-3-thienyl)-8-(1H-pyrazol-5-yl)-1,7-naphthyridine]"
11,179 nM,"Cc1ccc(-c2cc(N3CCOC[C@H]3C)nc3c(-c4ccn[nH]4)nccc23)c(F)n1 [Example 93, 4-(2-fluoro-6-methylpyridin-3-yl)-2-[(3R)-3-methylmorpholin-4-yl]-8-(1H-pyrazol-5-yl)-1,7-naphthyridine]"
12,198 nM,"Cc1cc(-c2cc(N3CCOC[C@H]3C)nc3c(-c4ccn[nH]4)nccc23)c(C)n1C [Example 264, 2-[(3R)-3-methylmorpholin-4-yl]-8-(1H-pyrazol-5-yl)-4-(1,2,5-trimethyl-1H-pyrrol-3-yl)-1,7-naphthyridine]"
13,1180 nM,"C[C@@H]1COCCN1c1cc(-c2ccc(Cl)s2)c2ccnc(-c3ccn[nH]3)c2n1 [Example 238, 4-(5-chlorothiophen-2-yl)-2-[(3R)-3-methylmorpholin-4-yl]-8-(1H-pyrazol-5-yl)-1,7-naphthyridine]"
14,686 nM,"CCC(O)(CC)c1cc(N2CCOC[C@H]2C)nc2c(-c3ccn[nH]3)nccc12 [Example 129, 3-{2-[(3R)-3-methylmorpholin-4-yl]-8-(1H-pyrazol-5-yl)-1,7-naphthyridin-4-yl}pentan-3-ol]"
